Consider 2 compounds from patent US20250361271A1, “PEPTIDE AGONIST” (THE UNIVERSITY OF BIRMINGHAM, priority 2022, published 2025).

Where two headings read alike, the source gives them in different places. Where a SMILES comes first, the peptide text is derived from it. [ ]: non-standard residue; d: D form. pGlu = O=C1CC[C@@H](C(=O)O)N1

The nature of one series: T1/2 in plasma (mouse). The class given is in vitro ADME. To be noted: mouse, plasma; 1 μM peptide, 37° C. The source says: Take all measurements in duplicate.
Series [1] concerns PBLs on cytokine stimulated HDBECs.
Protocol: Blood samples were obtained from consensual healthy donors and were collected in EDTA tubes (Sigma-Aldrich). […] 5 ml of blood was layered on top of the density gradient, and was centrifuged at 2500 rpm for 45 minutes. […] The PBMCs were washed twice for 7 minutes at 1500 rpm. Peripheral blood lymphocytes (PBLs) were isolated via panning PBMCs onto a culture flask for 30 minutes at 37° C., allowing monocytes to adhere.
HDBECS defrosted at 37° C. in a 25 cm^2 cell culture flask in 10 ml of media were dissociated using EDTA (Sigma-Aldrich) and Trypsin (Gibco) and seeded on 10 wells in a 12-well tissue culture plates (Falcon) and left to adhere at 37° C. After 24 hours, confluent endothelial layers were cytokine stimulated using 100 U/ml TNF-α (Sigma-Aldrich) and 10 ng/ml IFN-γ (Peprotech) for 24 hours at 37° C. The peptide treatment of the 1×10^6 cells/ml PBLs consisted of adding the peptides immediately before use. […] 1×10^6 PBLs were added to each well and incubated at 37° C., allowing PBLs to adhere to migrate across the endothelium. […] Cells were then fixed with 2% glutaraldehyde for 10 minutes and then imaged using phase-contrast microscopy via an inverted bright-field microscope at 20× magnification.
Imaging of the PBL migration assay was carried out using ImagePro 7 software (Media Cybernetics). Surface adherent cells were categorised as being phase-bright, and transmigrated cells were categorised as phase-dark with altered morphology, appearing as being under the endothelial layer. Images were taken at 5 different fields of each well, and an average of counted adherent and migrated PBLs was calculated.
The same methods described for the in vitro transmigration assay and analysis were used, and PBL transmigration was calculated as a percentage of adherent cells. Peptides were added to the PBLs at concentrations ranging from 0.0001-500 ng/ml on the cytokine stimulated HDBECs and the resulting PBL transmigration (as a percentage of adherent cells) was plotted as a function of log10 of the peptide concentration.
The peptides were added at concentration of 20 ng/ml and run alongside untreated PBL (PBL0) and scrambled protein to analyse their effects on adhesion and transmigration.
For series [2] the following is noted: human, plasma.
Protocol: Store at −20° C. or on ice. • 2) Thaw the plasma and spin in a centrifuge at 1500×g for 10 minutes at room temperature. • 3) Prepare stock solution of the peptide at 10 mM in dimethyl sulfoxide (DMSO) or phosphate buffered saline (PBS) and dilute solutions by adding 3 μL of 10 mM stock to 297 μL DMSO or PBS (100 µM stock for a final 1 μM concentration). • 4) Add 550 μL plasma to an incubation tube and separately add 5 μL of peptide stock solution to an incubation tube. Warm the incubation tubes (5 minutes, 37° C., with shaking). • 5) After warming, add 495 μL of warmed plasma to warmed peptide (time=0). Mix well and shake the tube containing the mixed sample (37° C., 1500×g). • 6) At 2, 5, 15, 30, 45 and 60 minutes after contacting the peptide and plasma, collect 40 μL of the sample into pre-prepared quench tubes. • 7) Analyse the sample at each time point by mass spectrometry. Take all measurements in duplicate.
The samples were analysed and the T1/2 values were calculated by XenoGesis. The T1/2 values correspond to the time taken for the concentration of the peptide in the blood or plasma to be reduced by 50%.
The test system of series [3] is primary human osteoblasts. Nature of the series: Alkaline phosphatase activity, human osteoblasts. The class given is cell-based. The following applies: 10 ng/ml peptide, 4 days, vs untreated cells, FIG. 5a. On the procedure: Human osteoarthritis subchondral joint tissue was obtained at the time of total knee and hip joint replacement operations from the Royal Orthopaedic Hospital (Birmingham). To isolate primary osteoblasts, cartilage was removed from the femoral condyles and tibial plateaus and cut into 2 mm^2 pieces. Samples were kept in media and cleaned of fat. Media contains DMEM (Sigma, D6546), FCS (10%), GPS (1%), Non-essential amino acid (1%; Sigma, M7145), β10 glycerophosphate (2 mM; Sigma, G9422) and L-Ascorbic acid (50 μg/ml; Sigma, A5960). Bone chips were placed in T75 flasks in 10 mL of media, replacing media every 2-3 days. […]
Osteoblasts (8×10^3 cells/well) were cultured in mineralisation differentiation media in the presence or absence of peptide (10 ng/ml) for 4 days. Mineralisation was assessed by quantifying the level of alkaline phosphate (ALP) activity (absorbance at 405 nm) per condition normalized to the absorbance generated by the untreated control (control on the graph).
To measure ALP activity, cells were washed in PBS before being lysed in 100 μl of RIPA buffer (Thermo Fisher, R^0278) for 15 minutes on ice. […] The plate was wrapped in foil and left to run for 45 minutes at 37° C. in an incubated shaker (SciQuip; Shropshire, UK) before being quantified using a Synergy HT plate reader (BioTek) with absorbance set at 405 nm.

Series [4] deals with primary murine calvarial osteoblasts. The series can be described thus: Alkaline phosphatase activity, murine osteoblasts. The following applies: 10 ng/ml peptide, 4 days, vs untreated cells, FIG. 5a. The class given is cell-based, mouse. On the procedure:
Skin was removed from around calvaria using forceps, and the calvaria was dissected out and cleaned of any contaminating tissue. Calvaria were added to αMEM media supplemented with 1 mg/ml of collagenase d (Roche, Basel, Switzerland, COLLD-RO). Tubes were then agitated at 37° C. for 10 minutes and the media discarded. αMEM media supplemented with 1 mg/ml of collagenase d was again added to calvaria and shaken at 37° C. for 30 minutes. Media (containing cells) was then removed and kept on ice. The calvaria were then again shaken at 37° C. for 10 minutes in 1.5 ml of αMEM media supplemented with 5 μM EDTA (Sigma-Aldrich, E7889) and the cell containing media transferred to the sample on ice, pooling the cells. […] Cells on ice were then spun down at 300 g for 4 minutes, resuspended in 1 ml of Basal media and counted using a haemocytometer. […] Mineralisation was assessed by quantifying the level of alkaline phosphate (ALP) activity (absorbance at 405 nm) per condition normalized to the absorbance generated by the untreated control (control on the graph). […] The plate was wrapped in foil and left to run for 45 minutes at 37° C. in an incubated shaker (SciQuip; Shropshire, UK) before being quantified using a Synergy HT plate reader (BioTek) with absorbance set at 405 nm.

For `C[C@H](NC(=O)CNC(=O)[C@@H]1CCC(=O)N1)C(=O)O` [SEQ ID NO. 21, pEGA] ([pGlu]-Gly-Ala-OH), the half-life (in the series “T1/2 in plasma (mouse)”; in series [2]) was more than 3 h each time. In series [1], this compound had an IC50 of 120 pM. For the same compound, the “% Inhibition (3 nM)” value in series [1] (3 nM peptide, inhibition of PBL transmigration (as a percentage of adherent cells)) came to 41.20%.

Regarding “ELSNEER [SEQ ID NO. 47, reference compound]”, the “ALP activity (mineralisation), human osteoblasts” value in series [3] was “did not exhibit a statistically significant change in osteoblast activity”. For the same compound, the “ALP activity (mineralisation), murine osteoblasts” value in series [4] is “did not exhibit a statistically significant change in osteoblast activity”.
